In patent US7750184B2, “Vitamin D receptor modulators” (Eli Lilly and Company, priority 2003, dated 2010):
pEC50, pIC50: −log10 of the molar value.

How the values were obtained:
[1] = system: KERtr cells; test: Keratinocyte proliferation assay; format: cell-based; settings: Homo sapiens, 72 hr, BrdU incorporation, read-out: Kera. Prolif. IC50
Experimental: 5. The Keratinocte Proliferation Assay
This Assay is indicative for the treatment of psoriasis.
(5) The Keratinocyte Proliferation Assay:
KERtr cells (Human skin keratinocyte transformed with a retrovirus vector, obtained from ATCC) were plated in 96-well flat-bottomed plates (3000 cells/well) in 100 µl keratinocyte serum free medium supplemented with bovine pituitary extract in the absence of EGF (Life Technologies, Rockville, Md.) and incubated at 37° C. for two days. The cells were treated with various concentrations of VDR ligands (ten-fold serial dilution from 10,000 nM to 0.1 nM in triplicate), dissolved in 100 μl keratinocyte serum free medium supplemented with bovine pituitary extract in the absence of EGF and incubated at 37° C. for 72 hr. BrdU (5-bromo-2′-deoxyuridine) incorporation was analyzed as a measure of DNA replication (Cell proliferation ELISA kit, Roche Diagnostics, Indianapolis, Ind.) and absorbance was measured at 405 nm. Potency values (IC50) values were determined as the concentration (nM) of compound that elicited a half-maximal response.

[2] = system: rat osteocalcin promoter; test: OCN (osteocalcin) promoter assay; format: cell-based; settings: RG-15 (ROS 17/2.8) cells, 48 hr treatment, luciferase reporter
Experimental: 3. The OCN (osteocalcin) Promoter Assay
The OCN Promoter Assay is an indicator and marker for osteoporosis. […] Preferred assay results are less than 50 nM.
(3) Materials and Method for the OCN Promoter Assay:
The activation of osteocalcin by VDR ligands was evaluated in a rat osteoblast-like cell line RG-15 (ROS 17/2.8) stably expressing rat osteocalcin promoter fused with luciferase reporter gene. […] Confluent RG-15 cells maintained in DMEM/F-12 medium (3:1) containing 5% FBS, 300 μg/ml G418 and at 37° C. under 5% CO2/95% air atmosphere were trypsinized (0.25% trypsin) and plated into white opaque 96-well cell culture plates (25000 cells/well). After 24 hr, cells (in DMEM/F-12 medium+2% FBS) were treated with various concentrations of compounds, dissolved in DMSO. The final DMSO concentration remained at 0.01% (v/v). After 48 hr treatment, the medium was removed, cells were lysed with 50 μl of lysis buffer (From Luciferase reporter assay system, Roche Diagnostics, Indianapolis, Ind.) and assayed for luciferase activity using the Luciferase Reporter Gene Assay kit from Boehringer Mannheim as per manufacturer's specifications.

[3] = target: T1, VDR (Homo sapiens, UniProt P11473); test: Caco-2 cell co-transfection assay (VDR CTF); format: cell-based; settings: Caco-2 cells, pGal4-VDR-LBD co-transfection, luciferase reporter
T1 construct: the receptor expression vector pGal4-VDR-LBD (10 ng); expressed in transfected cells; host or cells: Caco-2 cells
T1 sequence (P11473 127-423 limits assumed): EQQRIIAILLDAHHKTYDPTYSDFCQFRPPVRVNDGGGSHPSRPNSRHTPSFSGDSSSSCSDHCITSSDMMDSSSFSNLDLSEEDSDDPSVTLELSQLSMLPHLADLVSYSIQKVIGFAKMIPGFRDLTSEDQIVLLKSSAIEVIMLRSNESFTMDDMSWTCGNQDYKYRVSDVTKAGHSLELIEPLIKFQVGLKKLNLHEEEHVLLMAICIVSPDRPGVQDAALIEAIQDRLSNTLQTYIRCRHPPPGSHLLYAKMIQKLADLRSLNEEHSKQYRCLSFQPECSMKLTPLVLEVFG
Experimental: 2. The Caco-2 Cell Co-Transfection Assay:
The Caco-2 cell assay is an indicator for the undesirable condition of hypercalcemia. This co-transfection assay is a surrogate assay for in vivo calcemic activity of VDR ligands. […] Preferred assay results are greater than 1000 nM.
(2) Materials and Method for The Caco-2 Cell Assay:
Caco-2 cells, grown in phenol red free, DMEM (Invitrogen, Carlsbad, Calif.) containing 10% charcoal-stripped FCS (Hyclone, Logan, Utah), were transfected with Fugene 6 reagent (Roche Diagnostics, Indianapolis, Ind.). Cells (5000/well) were plated 18 h before transfection in a 96 well plate. The Cells were transfected with Gal4-responsive reporter pFRLuc (150 ng, Stratagene, La Jolla Calif.) and the receptor expression vector pGal4-VDR-LBD (10 ng), along with Fugene 6 reagent (0.2 μl/well). The DNA-Fugene complex was formed by incubating the mixture for 30 min at room temperature. The cells were transfected in triplicate for 5 h, and treated with various concentrations of VDR ligands (form 0.01 nM to 10,000 nM concentration range) 18 h post-transfection. The luciferase activity was quantified using Steady-Glo reagent kit (Promega, Madison, Wis.) as per manufacturer's specifications.

[4] = Mouse hypercalcemia assay; settings: oral gavage for 6 days, serum ionized calcium 6 hours after last dosing
Experimental: The Mouse Hypercalcemia Assay is a six day hypercalcemia test for toxicity and selectivity. Acceptable test results are levels greater than 300 μg/kg/day. Preferred assay results are levels greater than 1000 μg/day.
(4) Materials and Method for the Mouse Hypercalcemia Assay:
Weanling, virus—antibody-free, five to six weeks old female DBF mice (Harlan, Indianapolis, Ind.) are used for all the studies. Animals are allowed to acclimate to local vivarium conditions for 2 days. […] The animals then are divided into groups with 4-5 mice per group. Different doses of test compounds prepared in 10% Ethanol and 90% sesame oil are administered to mice orally via gavage for 6 days. 1α-25(OH)2D3 0.5 μg/kg/d was also given to one group of mice as the positive control. […] Raw data of group differences is assessed by analysis of variance (ANOVA) using Fisher's protected least significant difference (PLSD) where the significance level was P<0.05.

[5] = target: T2, RXR-VDR heterodimer (Homo sapiens, UniProt P11473); test: RXR-VDR heterodimerization assay (SaOS-2 cells); format: cell-based; settings: Gal4-RXR-DEF / VP16-VDR-LBD, luciferase reporter
T2 construct: Add the Gal4-RXR-DEF and VP16-VDR-LBD; expressed in transfected cells; host or cells: SaOS-2 cells
T2 sequence (P11473 127-423 limits assumed): T1 sequence (P11473 127-423 limits assumed)
T2 sequence (P19793 201-462 partner limits assumed): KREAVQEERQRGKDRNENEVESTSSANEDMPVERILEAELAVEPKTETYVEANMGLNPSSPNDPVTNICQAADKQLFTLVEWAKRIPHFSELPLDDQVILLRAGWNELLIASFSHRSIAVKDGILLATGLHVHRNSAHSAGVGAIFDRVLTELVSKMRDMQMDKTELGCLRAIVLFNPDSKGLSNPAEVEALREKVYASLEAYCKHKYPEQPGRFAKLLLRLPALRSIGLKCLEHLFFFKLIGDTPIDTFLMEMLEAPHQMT
Excerpt: 1. The RXR-VDR heterodimer Assay:
This assay provides the VDR activity of a test compound.
(1) Materials and Method for RXR-VDR Heterodimerization Assay:
Luciferase Assay Reagent: • Use Steady-Glo Luciferase Reagent from Promega (Cat # E2550) Consists of:
Add plain DMEM media to tubes for mixing the DNA
Add the Reporter gene pFR-LUC
Add the Gal4-RXR-DEF and VP16-VDR-LBD
Make a stock solution of the compounds in DMSO
Further dilute in D-MEM (Low Glucose—With out Phenol Red)
Read the plates after drug treatment
Add Steady-Glo Luciferase Reagent mixture/wells
Count each well using a Luminescence counter, Top Count NXT by Packard

Compound	pIC50 [1]	pEC50 ([2]; Rattus norvegicus, 48 h)	EC50 [3]	Mouse Hypercal [4]	pEC50 [2]	pEC50 [5]
CCC(CC)(c1ccc(OS(C)(=O)=O)cc1)c1ccc(OCC(O)C(C)(C)C)c(Cl)c1 (racemic) [Ex. 43, 51, 3′-[3-chloro-4-(2-hydroxy-3,3-dimethylbutoxy)phenyl]-3′-(4-methylsulfonyloxyphenyl)pentane]	8.40	8.12	–	–	–	–
CCC(CC)(c1ccc(NS(C)(=O)=O)c(C)c1)c1ccc(OCC(O)C(C)(C)C)c(C)c1 (single isomer, unassigned) [Ex. 14, 3′-[4-(2-Hydroxy-3,3-dimethylbutoxy)-3-methylphenyl]-3′-[4-(methanesulfonylamino)-3-methylphenyl]pentane]	8.70	8.01	89 nM	<300 µg/kg/day	–	–
CCC(CC)(c1ccc(OCC(O)C(C)(C)C)c(C)c1)c1ccc(N(C)S(C)(=O)=O)c(C)c1 (single isomer, unassigned) [Ex. 21, N-(4-{1-ethyl-1-[4-(2-hydroxy-3,3-dimethyl-butoxy)-3-methyl-phenyl]-propyl}-2-methyl-phenyl)-N-methyl-methanesulfonamide]	7.17	–	–	–	6.90	–
CCC(CC)(c1ccc(OS(C)(=O)=O)cc1)c1ccc(OCC(O)C(C)(C)C)c(Cl)c1 (single isomer, unassigned) [Ex. 44, 3′-[3-chloro-4-(2-hydroxy-3,3-dimethylbutoxy)phenyl]-3′-(4-methylsulfonyloxyphenyl)pentane]	–	–	86.6 nM	–	8.62	8.66
CCC(CC)(c1ccc(OC[C@@](C)(O)C(C)(C)C)c(C)c1)c1ccc(OS(=O)(=O)C(F)(F)F)c(C)c1 (stereo in doubt) [Ex. 35, trifluoro-methanesulfonic acid 4-{1-ethyl-1-[4-(2-hydroxy-2,3,3-trimethyl-butoxy)-3-methyl-phenyl]-propyl}-2-methyl-phenyl ester]	–	7.70	616 nM	–	–	6.86
Cc1cc(C2(c3ccc(OCC(=O)C(C)(C)C)c(C)c3)CCCCC2)ccc1OCC(=O)C(C)(C)C [CC, 1-(4-{1-[4-(3,3-Dimethyl-2-oxo-butoxy)-3-methyl-phenyl]-cyclohexyl}-2-methyl-phenoxy)-3,3-dimethyl-butan-2-one, reference compound]	–	5.00	710000 nM	>30000 µg/kg/day	–	–
CCC(CC)(c1ccc(OS(=O)(=O)C(F)(F)F)cc1)c1ccc(OCC(=O)C(C)(C)C)c(Cl)c1 [Ex 46, 52, 3′-[3-chloro-4-(2-Oxo-3.3-dimethylbutoxy)]-3′-(4-trifluoromethylsulfonyloxyphenyl)pentane]	7.05	6.66	–	–	–	–
CCC(CC)(c1ccc(OC[C@H](O)C(C)(C)C)c(C)c1)c1ccc(OS(C)(=O)=O)c(C)c1 [Ex. 1, 3′-[4-(2-hydroxy-3,3-dimethylbutoxy)-3-methylphenyl]-3′-[4-(methanesulfonyloxy)-3-methylphenyl]pentane]	–	8.57	118 nM	–	–	8.47
CCC(CC)(c1ccc(OCC(=O)C(C)(C)C)c(C)c1)c1ccc(OS(=O)(=O)C(F)(F)F)c(C)c1 [Ex. 5, 3′-[4-(2-oxo-3,3-dimethylbutoxy)-3-methylphenyl]-3′-[4-(trifluoromethanesulfonyloxy)-3-methylphenyl]pentane]	–	7.68	1590 nM	>500 µg/kg/day	–	–
CCC(CC)(c1ccc(OCC(O)C(C)(C)C)c(C)c1)c1ccc(OS(=O)(=O)C(F)(F)F)c(C)c1 (stereo not shown) [Ex. 6, 3′-[4-(2-hydroxy-3,3-dimethylbutoxy)-3-methylphenyl]-3′-[4-(trifluoromethanesulfonyloxy)-3-methylphenyl]pentane]	–	7.95	1140 nM	300 µg/kg/day	–	–
CCC(CC)(c1ccc(OCC(=O)C(C)(C)C)c(C)c1)c1ccc(OS(=O)(=O)CC(F)(F)F)c(C)c1 [Ex. 7]	–	7.08	331 nM	100 µg/kg/day	–	–
CCC(CC)(c1ccc(NS(C)(=O)=O)c(C)c1)c1ccc(OCC(=O)C(C)(C)C)c(C)c1 [Ex. 17, N-(4-{1-[4-(3,3-Dimethyl-2-oxo-butoxy)-3-methyl-phenyl]-1-ethyl-propyl}-2-methyl-phenyl)-methanesulfonamide]	8.70	8.43	–	–	–	–
CCC(CC)(c1ccc(NS(=O)(=O)CC)c(C)c1)c1ccc(OCC(=O)C(C)(C)C)c(C)c1 [Ex. 23, N-(4-{1-[4-(3,3-Dimethyl-2-oxo-butoxy)-3-methyl-phenyl]-1-ethyl-propyl}-2-methyl-phenyl)-ethanesulfonamide]	–	9.48	6.06 nM	500 µg/kg/day	–	9.09
CCc1cc(C(CC)(CC)c2ccc(OS(C)(=O)=O)cc2)ccc1OCC(=O)C(C)(C)C [Ex. 39, 3′-[4-(2-oxo-3,3-dimethylbutoxy)-3-ethylphenyl]-3′-[4-methylsulfonyloxy-phenyl]pentane]	–	8.75	18 nM	<100 µg/kg/day	–	–
CCC(CC)(c1ccc(OCC(=O)C(C)(C)C)c(C)c1)c1cc(C)c(OS(C)(=O)=O)c(C)c1 [Ex. 40, 3′-[4-(2-oxo-3,3-dimethylbutoxy)-3-methylphenyl]-3′-[3,5-dimethyl-4-methylsulfonyloxy-phenyl]pentane]	–	8.72	375 nM	300 µg/kg/day	–	–
CCC(CC)(c1ccc(OS(=O)(=O)C(F)(F)F)c(C)c1)c1ccc(OCC(=O)C(C)(C)C)c(Cl)c1 [Ex. 48, 3′-[3-chloro-4-(2-oxo-3.3-dimethylbutoxy)phenyl]-3′-[3-methyl-4-(trifluoromethylsulfonyloxy)phenyl]pentane]	7.89	7.27	–	<1000 µg/kg/day	–	–
